Measured values taken from patent US8912144B2, “Method for treating stroke via administration of NEP1-40 and inosine” (Children's Medical Center Corporation, priority 2003, dated 2014).

Tested on: corticospinal neurons (CSNs/CSMNs)
Assay: Laser-capture microdissection and Illumina microarray gene expression in corticospinal neurons contralateral to stroke
Assay type: in vivo, rat
Method: In a separate group of animals (n=20), layer V pyramidal cells of the sensorimotor cortex were retrogradely labeled by injecting Alexa-Fluor-488-conjugated cholera toxin B subunit (CTB; 300 U/μl in sterile saline) into the cervical spinal cord. For this, animals were anesthetized with a combination of ketamine and Domitor (medetomidine) and a laminectomy was performed at the cervical level of the spinal cord (C2-C4). CTB was stereotaxically delivered into four sites lateral to the corticospinal tract. Injections (1.3 μl) were spaced 1 mm apart on the rostro-caudal axis, and were made 0.5 mm to the left and right of the midline. After allowing two weeks for transport of the tracer, we performed either sham surgery with no treatment (n=6) or stroke surgery combined with saline (n=3) or inosine (n=4) treatment as described above. Seven days later, animals were decapitated under transient gas anesthesia, brains were removed and rinsed in cold RPMI medium, and a tissue block containing the sensorimotor cortex was dissected and placed in OCT Tissue Tek Medium (Sakura Finetek USA Inc., CA) on dry ice within five minutes of death. Ten μm sections were cut onto precleaned Gold Seal RITE-ON glass slides (Gold Seal Prod-ucts, Portsmouth, N.H.), placed on dry ice, and rapidly stored at −80° C.
Slide-mounted sections were thawed and dehydrated in RNAse-free ethanol gradients and xylene. Retro-gradely labeled, fluorescent cortical pyramidal cells in the undamaged hemisphere were individually captured using the Arcturus VERITAS system. ≧500 cells were collected from each animal and stored in Arcturus extraction buffer at −80° C. Total RNA was extracted from cells using the Micro-to-Midi TotalRNA Purification System (Invitrogen, Carlsbad Calif.) and double-amplified using the TargetAmp 2-Round Aminoallyl-aRNA Amplification kit 1.0 (Epicentre, Madison, Wis.). Amplified RNA was checked for average fragment length using the Agilent RNA 6000 Nano LabChip kit (Agilent Technologies, Santa Clara, Calif.) and then biotinylated and hybridized (1 μg) on Illumina RatRef-12 Expression BeadChip arrays (Illumina, San Diego Calif.), querying the expression of >22,000 RefSeq-curated rat transcripts. Results were obtained from a total of 15 samples representing 6 untreated controls, 4 animals with stroke treated with saline and 5 animals with stroke treated with inosine. Slides were processed and scanned with Illumina BeadStation platform according to the manufacturer protocol.
Raw data was analyzed using Bioconductor packages (www.bioconductor.org, (Gentleman et al., 2004)). Low level quality-control analysis was performed using inter-array Pearson correlation and clustering based on variance. Two arrays (1 saline and 1 inosine-treated) were outliers and were excluded from the analysis. Data was normalized using quantile normalization, and analysis of differential expression was performed using a linear model fitting (LIMMA package, (Smyth, 2005). Differentially expressed genes were classified according to gene ontology using Bioconductor packages and online tools (DAVID, http://david.abcc.ncifcrf.gov/). Pathway analysis was carried out using Ingenuity Pathway Analysis (Ingenuity Systems, www.ingenuity.com).

[1] = ILMN_161110, similar to myo-inositol 1-phosphate synthase A1

For `OC[C@H]1O[C@@H](n2cnc3c(O)ncnc32)[C@H](O)[C@@H]1O` [inosine], the “Fold-Induction Stroke, ino vs. cntrl, Rpl31” value (ILMN_70426) was 0.90, the “Signal Intensity, Rpl31” value (ILMN_70426, inosine after stroke) was 831 and the “Fold-Induction Stroke, ino vs. cntrl” value [1] was 2.90. The “Signal Intensity Inosine” value [1] was 3241, the “Fold-Induction Stroke, ino vs. cntrl” value (Ifitm3 ILMN_48088) was 2.71 and the “Signal Intensity Inosine” value (Ifitm3 ILMN_48088) was 2516. For the same compound, the “Fold-Induction Stroke, ino vs. cntrl” value (Igfbp2 ILMN_54332) was 3.97, the “Signal Intensity Inosine” value (Igfbp2 ILMN_54332) was 3801 and the “Fold-Induction Stroke, ino vs. cntrl” value (Ing4 ILMN_54994) was 1.01. For the same compound, the “Signal Intensity Inosine” value (Ing4 ILMN_54994) was 1169, the “Fold-Induction Stroke, ino vs. cntrl” value (Irf3 ILMN_51700) was 2.92 and the “Signal Intensity Inosine” value (Irf3 ILMN_51700) was 12720. For the same compound, the “Fold-Induction Stroke, ino vs. cntrl” value (LOC291847 ILMN_62527) was 1.32, the “Signal Intensity Inosine” value (LOC291847 ILMN_62527) was 558 and the “Fold-Induction Stroke, ino vs. cntrl” value (LOC294337 ILMN_68161) was 2.56. The “Signal Intensity Inosine” value (LOC294337 ILMN_68161) was 2622, the “Fold-Induction Stroke, ino vs. cntrl” value (LOC295941 ILMN_58921) was 1.07 and the “Signal Intensity Inosine” value (LOC295941 ILMN_58921) was 3970. The “Fold-Induction Stroke, ino vs. cntrl” value (LOC300149 ILMN_48288) was 1.34, the “Signal Intensity Inosine” value (LOC300149 ILMN_48288) was 2789 and the “Fold-Induction Stroke, ino vs. cntrl” value (LOC301122 ILMN_62401) was 1.22. For the same compound, the “Signal Intensity Inosine” value (LOC301122 ILMN_62401) was 925, the “Fold-Induction Stroke, ino vs. cntrl” value (LOC303702 ILMN_64738) was 1.72 and the “Signal Intensity Inosine” value (LOC303702 ILMN_64738) was 899. The “Fold-Induction Stroke, ino vs. cntrl” value (LOC303790 ILMN_56510) was 1.45, the “Signal Intensity Inosine” value (LOC303790 ILMN_56510) was 2300 and the “Fold-Induction Stroke, ino vs. cntrl” value (LOC304116 ILMN_63846) was 0.99. The “Signal Intensity Inosine” value (LOC304116 ILMN_63846) was 393, the “Fold-Induction Stroke, ino vs. cntrl” value (LOC305076 ILMN_60367) was 1.56 and the “Signal Intensity Inosine” value (LOC305076 ILMN_60367) was 824. The “Fold-Induction Stroke, ino vs. cntrl” value (LOC305633 ILMN_51277) was 2.99, the “Signal Intensity Inosine” value (LOC305633 ILMN_51277) was 2047 and the “Fold-Induction Stroke, ino vs. cntrl” value (LOC317579 ILMN_58258) was 1.52. For the same compound, the “Signal Intensity Inosine” value (LOC317579 ILMN_58258) was 733, the “Fold-Induction Stroke, ino vs. cntrl” value (LOC360627 ILMN_61895) was 2.62 and the “Signal Intensity Inosine” value (LOC360627 ILMN_61895) was 1064. The “Fold-Induction Stroke, ino vs. cntrl” value (LOC360644 ILMN_48641) was 3.68, the “Signal Intensity Inosine” value (LOC360644 ILMN_48641) was 602 and the “Fold-Induction Stroke, ino vs. cntrl” value (LOC361080 ILMN_61547) was 0.40. For the same compound, the “Signal Intensity Inosine” value (LOC361080 ILMN_61547) was 295, the “Fold-Induction Stroke, ino vs. cntrl” value (LOC362015 ILMN_62932) was 1.37 and the “Signal Intensity Inosine” value (LOC362015 ILMN_62932) was 1285. For the same compound, the “Fold-Induction Stroke, ino vs. cntrl” value (LOC362304 ILMN_53204) was 1.34, the “Signal Intensity Inosine” value (LOC362304 ILMN_53204) was 5067 and the “Fold-Induction Stroke, ino vs. cntrl” value (LOC362857 ILMN_64100) was 0.43. For the same compound, the “Signal Intensity Inosine” value (LOC362857 ILMN_64100) was 1081, the “Fold-Induction Stroke, ino vs. cntrl” value (LOC497739 ILMN_66205) was 1.65 and the “Signal Intensity Inosine” value (LOC497739 ILMN_66205) was 4864. The “Fold-Induction Stroke, ino vs. cntrl” value (LOC497841 ILMN_51249) was 11.52, the “Signal Intensity Inosine” value (LOC497841 ILMN_51249) was 2841 and the “Fold-Induction Stroke, ino vs. cntrl” value (LOC498185 ILMN_58236) was 2.76. For the same compound, the “Signal Intensity Inosine” value (LOC498185 ILMN_58236) was 804, the “Fold-Induction Stroke, ino vs. cntrl” value (LOC498276 ILMN_65617) was 2.56 and the “Signal Intensity Inosine” value (LOC498276 ILMN_65617) was 3014. For the same compound, the “Fold-Induction Stroke, ino vs. cntrl” value (LOC498279 ILMN_65961) was 4.07, the “Signal Intensity Inosine” value (LOC498279 ILMN_65961) was 8892 and the “Fold-Induction Stroke, ino vs. cntrl” value (LOC498335 ILMN_53325) was 25.26. For the same compound, the “Signal Intensity Inosine” value (LOC498335 ILMN_53325) was 3310, the “Fold-Induction Stroke, ino vs. cntrl” value (LOC498614 ILMN_54303) was 1.05 and the “Signal Intensity Inosine” value (LOC498614 ILMN_54303) was 2373. The “Fold-Induction Stroke, ino vs. cntrl” value (LOC498957 ILMN_67281) was 1.28, the “Signal Intensity Inosine” value (LOC498957 ILMN_67281) was 1081 and the “Fold-Induction Stroke, ino vs. cntrl” value (LOC499244 ILMN_49099) was 2.24. The “Signal Intensity Inosine” value (LOC499244 ILMN_49099) was 14824, the “Fold-Induction Stroke, ino vs. cntrl” value (LOC500226 ILMN_54711) was 2.10 and the “Signal Intensity Inosine” value (LOC500226 ILMN_54711) was 7922. For the same compound, the “Fold-Induction Stroke, ino vs. cntrl” value (LOC500804 ILMN_61346) was 2.35, the “Signal Intensity Inosine” value (LOC500804 ILMN_61346) was 5507 and the “Fold-Induction Stroke, ino vs. cntrl” value (Lap3 ILMN_57870) was 1.01. The “Signal Intensity Inosine” value (Lap3 ILMN_57870) was 918, the “Fold-Induction Stroke, ino vs. cntrl” value (Lcpl ILMN_58058) was 2.76 and the “Signal Intensity Inosine” value (Lcpl ILMN_58058) was 1306. The “Fold-Induction Stroke, ino vs. cntrl” value (Lgals3bp ILMN_60037) was 3.00.
